Assay results as given in patent publication US20100278940A1, “Calcium supplements” (HL DISTRIBUTION COMPANY, priority 2005, published 2010).

Legend:
[1] = system: osteoblastic hFOB 1.19 cells; assay: MDA assay (H2O2-induced oxidative stress, lipid peroxidation); format: cell-based, human; details: 24 h
Description: (§1) These alterations in temperature were required because hFOB 1.19 cells were conditionally immortalized with a gene encoding a temperature-sensitive mutant (tsA58) of SV40 large T antigen.
(§2) AC was dissolved in HCl:H2O mixture at the ratio of 13:2. Calcium carbonate and calcium citrate were dissolved in distilled water. The stock solution of vitamin D3 was dissolved in ethyl alcohol as per the manufacturer's instructions and directly added in the medium to achieve its final concentration. […] The amount of calcium present in 0.5 mg of AC is 0.15 mg. […] Finally, the pH was maintained same in all the preparations.
After 24 h of treatment with compounds in the presence and absence of H2O2 (0.3 mM), the cells were washed with cold PBS, scraped, and homogenized in lysis buffer. […] of cell lysate was used for measuring the MDA levels by following the manufacturer's instructions. […] In this study, MDA standard was used to construct a standard curve.
(§3) Data were expressed as the mean±SEM of 3-6 independent experiments. Statistical comparisons of the results were made using one way analysis of variance (ANOVA). Significant differences (p≦0.05) between the means of control and test group were analyzed by the Neuman-Keuls multiple comparison test.

[2] = system: Human fetal osteoblast cells (hFOB 1.19); assay: Alkaline phosphatase (ALP) activity in osteoblast cells; format: cell-based; details: 4 days; AC 0.5 mg/ml, 0.15 mg/ml calcium from carbonate or citrate; mean±SEM
Description: as §1, §2, §3

[3] = system: Human fetal osteoblast cells (hFOB 1.19); assay: DNA synthesis assay ([3H] thymidine incorporation); format: cell-based; details: 4 days treatment, without vitamin D3; mean±SEM
Description: as §1, §2, §3

[4] = system: Human fetal osteoblast cells (hFOB 1.19); assay: Mineralization/calcium deposition assay (Alizarin Red S); format: cell-based; details: 2 days treatment, without vitamin D3; mean±SEM
Description: as §1, §2, §3

[5] = system: Human fetal osteoblast cells (hFOB 1.19); assay: Immunocytochemistry for proliferating cell nuclear antigen (PCNA) expression; format: cell-based; details: 4 days treatment, without vitamin D3
Description: Human fetal osteoblast cells (hFOB 1.19-ATCC number: CRL-11372) were seeded at a density of 10,000 cells cm^−2 in a mixture of Dulbecco's modified eagle medium (DMEM) and Ham F12 medium (1:1 ratio) supplemented with 10% fetal bovine serum (FBS) and 0.3 mg/ml […]. Osteoblast cells were cultured in a humidified atmosphere of 5% CO2 at 33.5° C. for cell attachment and proliferation and at 39.5° C. for other assays. These alterations in temperature were required because hFOB 1.19 cells were conditionally immortalized with a gene encoding a temperature-sensitive mutant (tsA58) of SV40 large T antigen.
AC was dissolved in HCl:H2O mixture at the ratio of 13:2. Calcium carbonate and calcium citrate were dissolved in distilled water. The stock solution of vitamin D3 was dissolved in ethyl alcohol as per the manufacturer's instructions and directly added in the medium to achieve its final concentration. […] The same dose was used for further experiments in the present study. The amount of calcium present in 0.5 mg of AC is 0.15 mg. […] Finally, the pH was maintained same in all the preparations.
To evaluate proliferative activity, immunohistochemistry for PCNA was performed after 4 days treatment of AC, calcium carbonate and calcium citrate. The experiment was done by following the instructions of PCNA staining kit (Invitrogen). […]

[6] = in presence of 0.3 mM H2O2, mean±SEM

MDA levels ([1]; 0.3 mM H2O2 alone, control 0.6768±0.084) [µM] | SMILES | ALP activity [2] [nmol/mg protein] | [3H] thymidine incorporation counts (DNA synthesis) [3] [cpm] | calcium deposition (mineralization) [4] [OD at 561 nm] | MDA levels [1, 6] [µM] | expression of PCNA [5]
1.992 ± 0.116 | OO [Example H2O2, H2O2] | – | – | – | – | –
– | O=C([O-])[O-].[Ca+2] [calcium carbonate, Calcium carbonate] | 372.2±15.7 | 62.8±11.6 | 0.1810±0.0115 | 1.263 ± 0.062 | –
– | O=C([O-])CC(O)(CC(=O)[O-])C(=O)[O-].O=C([O-])CC(O)(CC(=O)[O-])C(=O)[O-].[Ca+2].[Ca+2].[Ca+2] [calcium citrate] | 302.1±47.8 | 45±9.9 | 0.1267±0.0054 | 1.289 ± 0.109 | considerably higher than the control and calcium carbonate-treated cells
